Patent publication US20170143701A1, “CARBOHYDRATE METABOLISM-AMELIORATING AGENT” (SUNTORY HOLDINGS LIMITED, priority 2014, published 2017)

System: C57/BL6J mice
Assay: In vivo plasma GLP-1 level-increasing action: plasma active GLP-1 level (ELISA) after oral administration
Settings: 10 mg/kg oral; for Significant difference (p < 0.05) vs control group, plasma active GLP-1 level: 30 minutes, Student's t-test; for Plasma active GLP-1 level (relative value to control group as 100), average value: blood 30 minutes after, 0.5% CMC-Na group = 100
Procedure: Seven-week-old male C57/BL6J mice were purchased from CLEA Japan, Inc. for use, and they were subjected to an experiment after 1 week of a habituation period.
After the habituation period, the mice were subjected to 5.5 hours of food deprivation and 2 hours of water deprivation. Thereafter, a cyclic dipeptide dissolved or suspended in a 0.5% CMC-Na aqueous solution in 10 mg/kg was orally administered to each mouse forcibly. After 30 minutes, the blood was collected from the abdominal vena cava under anesthesia, and 1 μL of heparin sodium and 1 μL of 10 mM Sitagliptin phosphate were added to each collected blood, which was then subjected to centrifugation at 8000 rpm for 10 minutes to recover the plasma, and the plasma active GLP-1 level was measured by using the ELISA kit. In the analysis, the active GLP-1 level for a group administered with 0.5% CMC-Na aqueous solution was defined as 100, and relative values thereto were used.

NC(=O)CC[C@@H]1NC(=O)[C@H](Cc2c[nH]c3ccccc23)NC1=O [compound 82, Cyclo(Trp-Gln)]
Significant difference (p < 0.05) vs control group, plasma active GLP-1 level (Table 11, Experiment 6): No
Plasma active GLP-1 level (relative value to control group as 100), average value (Table 11, Experiment 6): 90

CSCCC1NC(=O)C(Cc2c[nH]c3ccccc23)NC1=O (stereo not drawn) [compound 83, Cyclo(Trp-Met)]
Significant difference (p < 0.05) vs control group, plasma active GLP-1 level (Table 11, Experiment 6): No
Plasma active GLP-1 level (relative value to control group as 100), average value (Table 11, Experiment 6): 110

O=C1NC(Cc2cnc[nH]2)C(=O)NC1Cc1ccc(O)cc1 (stereo not drawn) [compound 85, Cyclo(His-Tyr)]
Significant difference (p < 0.05) vs control group, plasma active GLP-1 level (Table 11, Experiment 6): No
Plasma active GLP-1 level (relative value to control group as 100), average value (Table 11, Experiment 6): 90

CC1NC(=O)C(Cc2ccc(O)cc2)NC1=O (stereo not drawn) [compound 86, Cyclo(Ala-Tyr)]
Significant difference (p < 0.05) vs control group, plasma active GLP-1 level (Table 11, Experiment 6): No
Plasma active GLP-1 level (relative value to control group as 100), average value (Table 11, Experiment 6): 90

O=C(O)CC[C@@H]1NC(=O)[C@H](Cc2ccc(O)cc2)NC1=O [compound 87, Cyclo(Glu-Tyr)]
Significant difference (p < 0.05) vs control group, plasma active GLP-1 level (Table 12, Experiment 7): No
Plasma active GLP-1 level (relative value to control group as 100), average value (Table 12, Experiment 7): 141

CC(C)[C@@H]1NC(=O)[C@H](Cc2ccc(O)cc2)NC1=O [compound 88, cyclo-valyl-tyrosine]
Significant difference (p < 0.05) vs control group, plasma active GLP-1 level (Table 12, Experiment 7): Yes
Plasma active GLP-1 level (relative value to control group as 100), average value (Table 12, Experiment 7): 385

CCC(C)C1NC(=O)C(Cc2ccc(O)cc2)NC1=O (stereo not drawn) [compound 89, Cyclo(Ile-Tyr)]
Significant difference (p < 0.05) vs control group, plasma active GLP-1 level (Table 12, Experiment 7): No
Plasma active GLP-1 level (relative value to control group as 100), average value (Table 12, Experiment 7): 222

C[C@@H](O)[C@@H]1NC(=O)[C@H](Cc2ccc(O)cc2)NC1=O [compound 90, cyclo-threonyl-tyrosine]
Significant difference (p < 0.05) vs control group, plasma active GLP-1 level (Table 12, Experiment 7): Yes
Plasma active GLP-1 level (relative value to control group as 100), average value (Table 12, Experiment 7): 466

O=C(O)C[C@@H]1NC(=O)[C@H](Cc2ccc(O)cc2)NC1=O [compound 91, Cyclo(Asp-Tyr)]
Significant difference (p < 0.05) vs control group, plasma active GLP-1 level (Table 12, Experiment 7): No
Plasma active GLP-1 level (relative value to control group as 100), average value (Table 12, Experiment 7): 181

NC(=O)C[C@@H]1NC(=O)[C@H](Cc2ccc(O)cc2)NC1=O [compound 92, Cyclo(Asn-Tyr)]
Significant difference (p < 0.05) vs control group, plasma active GLP-1 level (Table 12, Experiment 7): No
Plasma active GLP-1 level (relative value to control group as 100), average value (Table 12, Experiment 7): 181

NC(=O)CC[C@@H]1NC(=O)[C@H](Cc2ccc(O)cc2)NC1=O [compound 93, cyclo-glutaminyl-tyrosine]
Significant difference (p < 0.05) vs control group, plasma active GLP-1 level (Table 12, Experiment 7): Yes
Plasma active GLP-1 level (relative value to control group as 100), average value (Table 12, Experiment 7): 344

N=C(N)NCCCC1NC(=O)C(Cc2ccc(O)cc2)NC1=O (stereo not drawn) [compound 94, Cyclo(Arg-Tyr)]
Significant difference (p < 0.05) vs control group, plasma active GLP-1 level (Table 12, Experiment 7): No
Plasma active GLP-1 level (relative value to control group as 100), average value (Table 12, Experiment 7): 222

CC(C)C[C@@H]1NC(=O)[C@H](Cc2cnc[nH]2)NC1=O [compound 103, Cyclo(His-Leu)]
Significant difference (p < 0.05) vs control group, plasma active GLP-1 level (Table 13, Experiment 8): No
Plasma active GLP-1 level (relative value to control group as 100), average value (Table 13, Experiment 8): 94

CC(C)CC1NC(=O)C(C(C)O)NC1=O (stereo not drawn) [compound 105, Cyclo(Thr-Leu)]
Significant difference (p < 0.05) vs control group, plasma active GLP-1 level (Table 13, Experiment 8): No
Plasma active GLP-1 level (relative value to control group as 100), average value (Table 13, Experiment 8): 94

CC(C)CC1NC(=O)C(CC(N)=O)NC1=O (stereo not drawn) [compound 106, Cyclo(Asn-Leu)]
Significant difference (p < 0.05) vs control group, plasma active GLP-1 level (Table 13, Experiment 8): No
Plasma active GLP-1 level (relative value to control group as 100), average value (Table 13, Experiment 8): 94

CC(C)C1NC(=O)C(Cc2cnc[nH]2)NC1=O (stereo not drawn) [compound 108, Cyclo(Val-His)]
Significant difference (p < 0.05) vs control group, plasma active GLP-1 level (Table 13, Experiment 8): No
Plasma active GLP-1 level (relative value to control group as 100), average value (Table 13, Experiment 8): 118

CC(C)C1NC(=O)C(CCC(=O)O)NC1=O (stereo not drawn) [compound 118, Cyclo(Val-Glu)]
Significant difference (p < 0.05) vs control group, plasma active GLP-1 level (Table 13, Experiment 8): No
Plasma active GLP-1 level (relative value to control group as 100), average value (Table 13, Experiment 8): 112

CCC(C)C1NC(=O)C(CCSC)NC1=O (stereo not drawn) [compound 119, Cyclo(Met-Ile)]
Significant difference (p < 0.05) vs control group, plasma active GLP-1 level (Table 13, Experiment 8): No
Plasma active GLP-1 level (relative value to control group as 100), average value (Table 13, Experiment 8): 106

CSCCC1NC(=O)C(Cc2cnc[nH]2)NC1=O (stereo not drawn) [compound 120, cyclo-methionyl-histidine]
Significant difference (p < 0.05) vs control group, plasma active GLP-1 level (Table 13, Experiment 8): Yes
Plasma active GLP-1 level (relative value to control group as 100), average value (Table 13, Experiment 8): 154

CC1NC(=O)C(C(C)C)NC1=O (stereo not drawn) [compound 122, Cyclo(Val-Ala)]
Significant difference (p < 0.05) vs control group, plasma active GLP-1 level (Table 13, Experiment 8): No
Plasma active GLP-1 level (relative value to control group as 100), average value (Table 13, Experiment 8): 94

CCC(C)C1NC(=O)C(C)NC1=O (stereo not drawn) [compound 123, Cyclo(Ile-Ala)]
Significant difference (p < 0.05) vs control group, plasma active GLP-1 level (Table 14, Experiment 9): No
Plasma active GLP-1 level (relative value to control group as 100), average value (Table 14, Experiment 9): 120

CSCCC1NC(=O)C(C)NC1=O (stereo not drawn) [compound 125, cyclo-methionyl-alanine]
Significant difference (p < 0.05) vs control group, plasma active GLP-1 level (Table 14, Experiment 9): Yes

CSCC[C@@H]1NC(=O)CNC1=O [compound 127, cyclo-methionyl-glycine]
Significant difference (p < 0.05) vs control group, plasma active GLP-1 level (Table 14, Experiment 9): Yes
Plasma active GLP-1 level (relative value to control group as 100), average value (Table 14, Experiment 9): 124

CC(C)C1NC(=O)C(CO)NC1=O (stereo not drawn) [compound 132, cyclo-valyl-serine]
Significant difference (p < 0.05) vs control group, plasma active GLP-1 level (Table 14, Experiment 9): Yes
Plasma active GLP-1 level (relative value to control group as 100), average value (Table 14, Experiment 9): 129

CC[C@H](C)[C@@H]1NC(=O)[C@H](CO)NC1=O [compound 133, cyclo-isoleucyl-serine]
Significant difference (p < 0.05) vs control group, plasma active GLP-1 level (Table 14, Experiment 9): Yes

CCC(C)C1NC(=O)C(C(C)C)NC1=O (stereo not drawn) [compound 138, Cyclo(Ile-Val)]
Significant difference (p < 0.05) vs control group, plasma active GLP-1 level (Table 14, Experiment 9): No
Plasma active GLP-1 level (relative value to control group as 100), average value (Table 14, Experiment 9): 96

CC(C)C1NC(=O)C(C(C)O)NC1=O (stereo not drawn) [compound 139, cyclo-valyl-threonine]
Significant difference (p < 0.05) vs control group, plasma active GLP-1 level (Table 14, Experiment 9): Yes
Plasma active GLP-1 level (relative value to control group as 100), average value (Table 14, Experiment 9): 120

CC(C)C1NC(=O)C(CC(=O)O)NC1=O (stereo not drawn) [compound 140, cyclo-valyl-aspartic acid]
Significant difference (p < 0.05) vs control group, plasma active GLP-1 level (Table 14, Experiment 9): Yes
Plasma active GLP-1 level (relative value to control group as 100), average value (Table 14, Experiment 9): 120

CC(C)[C@@H]1NC(=O)[C@H](CC(N)=O)NC1=O [compound 141, cyclo-asparaginyl-valine]
Significant difference (p < 0.05) vs control group, plasma active GLP-1 level (Table 15, Experiment 10): Yes
Plasma active GLP-1 level (relative value to control group as 100), average value (Table 15, Experiment 10): 191

CC(C)CC1NC(=O)C(CCC(=O)O)NC1=O (stereo not drawn) [compound 145, cyclo-glutamyl-leucine]
Significant difference (p < 0.05) vs control group, plasma active GLP-1 level (Table 15, Experiment 10): Yes
Plasma active GLP-1 level (relative value to control group as 100), average value (Table 15, Experiment 10): 236

CC(C)CC1NC(=O)C(CC(=O)O)NC1=O (stereo not drawn) [compound 146, cyclo-aspartyl-leucine]
Significant difference (p < 0.05) vs control group, plasma active GLP-1 level (Table 15, Experiment 10): Yes
Plasma active GLP-1 level (relative value to control group as 100), average value (Table 15, Experiment 10): 259
